Data from PubChem BioAssay AID256 (DTP/NCI, 2004).
“And” between values parts separate entries of the source, which are not always exact repeats. Equal entries are not always repeated. Inconclusive results and toxic doses are left out. How the source made its calls: active means survival T/C of 150% or more; inactive means T/C below 125% in these data.

Test system: CD2F1 mice, L1210 leukemia ip, survival T/C
Test: NCI In Vivo Anticancer Drug Screen. Data for tumor model L1210 Leukemia (intraperitoneal) in CD2F1 (CDF1) mice
Settings: higher = longer survival
In short: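 Implant tumor; dose compound or vehicle; measure endpoint in both groups; report treated divided by control.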

[1] = endpoint: mean survival time, dose: 25.0 mg/kg/injection, schedule: Q01DX009 (ip), vehicle: saline
[2] = endpoint: mean survival time, dose: 100.0 mg/kg/injection, schedule: Q04DX003 (ip), vehicle: saline
[3] = endpoint: mean survival time, dose: 100.0 mg/kg/injection, schedule: Q04DX003 (ip), vehicle: saline with Tween-80
[4] = endpoint: mean survival time, dose: 200.0 mg/kg/injection, schedule: Q04DX003 (ip), vehicle: saline with Tween-80
[5] = endpoint: mean survival time, dose: 400.0 mg/kg/injection, schedule: Q04DX003 (ip), vehicle: saline with Tween-80
[6] = endpoint: mean survival time, dose: 50.0 mg/kg/injection, schedule: Q01DX009 (ip), vehicle: saline
[7] = endpoint: mean survival time, dose: 100.0 mg/kg/injection, schedule: Q01DX009 (ip), vehicle: saline
[8] = endpoint: mean survival time, dose: 100.0 mg/kg/injection, schedule: Q01DX009 (ip), vehicle: saline with Tween-80
[9] = endpoint: mean survival time, dose: 100.0 mg/kg/injection, schedule: Q04DX002 (ip), vehicle: saline with Tween-80
[10] = endpoint: mean survival time, dose: 200.0 mg/kg/injection, schedule: Q04DX002 (ip), vehicle: saline with Tween-80

Measured: T/C

CC(C)=CCC/C(C)=C/CN
inactive: [1] 98 % of control | [2] 86 % of control

C1CN2CCN1CC2.O.[Cl][Pt][Cl]
inactive: endpoint: mean survival time, dose: 12.5 mg/kg/injection, schedule: Q01DX005 (ip), vehicle: water 97 % of control | endpoint: mean survival time, dose: 25.0 mg/kg/injection, schedule: Q01DX005 (ip), vehicle: water 92 % of control | endpoint: mean survival time, dose: 50.0 mg/kg/injection, schedule: Q01DX005 (ip), vehicle: water 92 % of control | endpoint: mean survival time, dose: 50.0 mg/kg/injection, schedule: Q04DX003 (ip), vehicle: water 102 % of control | endpoint: mean survival time, dose: 100.0 mg/kg/injection, schedule: Q01DX005 (ip), vehicle: water 96 % of control | endpoint: mean survival time, dose: 100.0 mg/kg/injection, schedule: Q04DX003 (ip), vehicle: water 94 % of control | endpoint: mean survival time, dose: 200.0 mg/kg/injection, schedule: Q01DX005 (ip), vehicle: water 96 % of control | endpoint: mean survival time, dose: 200.0 mg/kg/injection, schedule: Q04DX003 (ip), vehicle: water 95 % of control | endpoint: mean survival time, dose: 400.0 mg/kg/injection, schedule: Q04DX003 (ip), vehicle: water 107 % of control

COc1ccc(C2CCc3cc4c(cc3C2=O)OCO4)cc1OC (centres undefined)
inactive: [3] 98 % of control | [4] 96 % of control | [5] 91 % of control

[O-][n+]1cccc(CCc2ccc[n+]([O-])c2)c1
inactive: [6] 100 % of control | [7] 104 % of control | endpoint: mean survival time, dose: 200.0 mg/kg/injection, schedule: Q01DX009 (ip), vehicle: saline 100 % of control

C=CC[As](=O)(O)CCC
inactive: [1] 100 % of control | [6] 98 % of control | [8] 114 % of control | [7] 97 % of control

COc1c(CNC(=O)CCl)cc2[nH]c(C)cc2c1CNC(=O)CCl
inactive: endpoint: mean survival time, dose: 12.5 mg/kg/injection, schedule: Q01DX009 (ip), vehicle: Klucel (hydroxypropylcellulose) (HPC) 98 % of control | endpoint: mean survival time, dose: 25.0 mg/kg/injection, schedule: Q01DX009 (ip), vehicle: Klucel (hydroxypropylcellulose) (HPC) 98 % of control and 101 % of control | endpoint: mean survival time, dose: 50.0 mg/kg/injection, schedule: Q01DX009 (ip), vehicle: Klucel (hydroxypropylcellulose) (HPC) 98 % of control and 103 % of control | endpoint: mean survival time, dose: 100.0 mg/kg/injection, schedule: Q01DX009 (ip), vehicle: Klucel (hydroxypropylcellulose) (HPC) 97 % of control and 102 % of control | endpoint: mean survival time, dose: 200.0 mg/kg/injection, schedule: Q01DX009 (ip), vehicle: Klucel (hydroxypropylcellulose) (HPC) 93 % of control and 104 % of control | endpoint: mean survival time, dose: 400.0 mg/kg/injection, schedule: Q01DX009 (ip), vehicle: Klucel (hydroxypropylcellulose) (HPC) 95 % of control

CNC(=O)Oc1cccc(NC(=O)OCCOC)c1
inactive: [3] 99 % of control | [4] 99 % of control | [5] 92 % of control

O=[N+]([O-])c1ccc(C2N(Cc3ccc(Cl)cc3)CCN2Cc2ccc(Cl)cc2)cc1
inactive: endpoint: mean survival time, dose: 100.0 mg/kg/injection, schedule: Q01DX001 (ip), vehicle: saline with Tween-80 92 % of control | [8] 95 % of control | [3] 98 % of control | endpoint: mean survival time, dose: 200.0 mg/kg/injection, schedule: Q01DX001 (ip), vehicle: saline with Tween-80 96 % of control | endpoint: mean survival time, dose: 200.0 mg/kg/injection, schedule: Q01DX009 (ip), vehicle: saline with Tween-80 88 % of control | [4] 98 % of control | endpoint: mean survival time, dose: 400.0 mg/kg/injection, schedule: Q01DX001 (ip), vehicle: saline with Tween-80 93 % of control | endpoint: mean survival time, dose: 400.0 mg/kg/injection, schedule: Q01DX009 (ip), vehicle: saline with Tween-80 91 % of control | [5] 90 % of control

CN(C)C(c1ccccc1)C(O)c1ccccc1 (centres undefined)
inactive: endpoint: mean survival time, dose: 75.0 mg/kg/injection, schedule: Q01DX001 (ip), vehicle: saline 103 % of control | endpoint: mean survival time, dose: 150.0 mg/kg/injection, schedule: Q01DX001 (ip), vehicle: saline 97 % of control

O=C(Nc1ccccc1Cl)c1ccccc1CC(O)(c1ccccc1)c1ccccc1
inactive: endpoint: mean survival time, dose: 100.0 mg/kg/injection, schedule: Q01DX001 (ip), vehicle: saline sonified 102 % of control | endpoint: mean survival time, dose: 200.0 mg/kg/injection, schedule: Q01DX001 (ip), vehicle: saline sonified 109 % of control | endpoint: mean survival time, dose: 400.0 mg/kg/injection, schedule: Q01DX001 (ip), vehicle: saline sonified 86 % of control

CC(=O)OC1COC(n2cnc(C#N)c2C#N)C(OC(C)=O)C1OC(C)=O (centres undefined)
inactive: endpoint: mean survival time, dose: 12.5 mg/kg/injection, schedule: Q01DX005 (ip), vehicle: distilled water + Tween-80 101 % of control and 98 % of control | endpoint: mean survival time, dose: 25.0 mg/kg/injection, schedule: Q01DX005 (ip), vehicle: distilled water + Tween-80 95 % of control and 103 % of control | endpoint: mean survival time, dose: 50.0 mg/kg/injection, schedule: Q01DX005 (ip), vehicle: distilled water + Tween-80 93 % of control and 101 % of control | endpoint: mean survival time, dose: 100.0 mg/kg/injection, schedule: Q01DX005 (ip), vehicle: distilled water + Tween-80 97 % of control | endpoint: mean survival time, dose: 200.0 mg/kg/injection, schedule: Q01DX005 (ip), vehicle: distilled water + Tween-80 93 % of control and 104 % of control

O=C(Nc1ccc(Cl)cc1)Oc1ccc2ccccc2c1
inactive: endpoint: mean survival time, dose: 100.0 mg/kg/injection, schedule: Q01DX001 (ip), vehicle: saline 96 % of control | endpoint: mean survival time, dose: 200.0 mg/kg/injection, schedule: Q01DX001 (ip), vehicle: saline 94 % of control | endpoint: mean survival time, dose: 400.0 mg/kg/injection, schedule: Q01DX001 (ip), vehicle: saline 111 % of control

O=C1C2C3CCC(O3)C2C(=O)N1CC#CCN1C(=O)C2C3CCC(O3)C2C1=O (centres undefined)
inactive: [9] 98 % of control | [10] 98 % of control | endpoint: mean survival time, dose: 400.0 mg/kg/injection, schedule: Q04DX002 (ip), vehicle: saline with Tween-80 90 % of control

O.O=[N+]([O-])O.[NH-]C1CCCCC1[NH-].[Pt+2] (centres undefined)
inactive: endpoint: mean survival time, dose: 0.32 mg/kg/injection, schedule: Q04DX003 (ip), vehicle: other 113 % of control | endpoint: mean survival time, dose: 0.63 mg/kg/injection, schedule: Q04DX003 (ip), vehicle: other 119 % of control

COc1ccc(OC)c(CC(C(C)=O)C(C)=O)c1
inactive: endpoint: mean survival time, dose: 12.5 mg/kg/injection, schedule: Q01DX009 (ip), vehicle: water 100 % of control | endpoint: mean survival time, dose: 25.0 mg/kg/injection, schedule: Q01DX009 (ip), vehicle: water 96 % of control | endpoint: mean survival time, dose: 50.0 mg/kg/injection, schedule: Q01DX009 (ip), vehicle: water 100 % of control | endpoint: mean survival time, dose: 100.0 mg/kg/injection, schedule: Q01DX009 (ip), vehicle: water 98 % of control | endpoint: mean survival time, dose: 200.0 mg/kg/injection, schedule: Q01DX009 (ip), vehicle: water 95 % of control

O=C(O)C/[N+]([O-])=N\O
inactive: [2] 96 % of control | endpoint: mean survival time, dose: 200.0 mg/kg/injection, schedule: Q04DX003 (ip), vehicle: saline 102 % of control | endpoint: mean survival time, dose: 400.0 mg/kg/injection, schedule: Q04DX003 (ip), vehicle: saline 105 % of control

COc1nc(NC2OC(CO)C(O)C(O)C2O)c(I)c(=O)n1C (centres undefined)
inactive: endpoint: median survival time, dose: 12.5 mg/kg/injection, schedule: Q01DX005 (ip), vehicle: saline with Tween-80 100 % of control | endpoint: median survival time, dose: 25.0 mg/kg/injection, schedule: Q01DX005 (ip), vehicle: saline with Tween-80 100 % of control | endpoint: median survival time, dose: 50.0 mg/kg/injection, schedule: Q01DX005 (ip), vehicle: saline with Tween-80 100 % of control | endpoint: median survival time, dose: 100.0 mg/kg/injection, schedule: Q01DX005 (ip), vehicle: saline with Tween-80 100 % of control | endpoint: median survival time, dose: 200.0 mg/kg/injection, schedule: Q01DX005 (ip), vehicle: saline with Tween-80 101 % of control

COC(=O)C(c1ccccc1)C(c1ccccc1)c1ccccc1 (centres undefined)
inactive: [9] 95 % of control | [10] 87 % of control

COC(=O)CSC#N
inactive: endpoint: mean survival time, dose: 10.0 mg/kg/injection, schedule: Q01DX001 (ip), vehicle: saline 111 % of control | endpoint: mean survival time, dose: 20.0 mg/kg/injection, schedule: Q01DX001 (ip), vehicle: saline 107 % of control
